# Patent US8901310B2, “Tricyclic compounds, compositions, and methods” (Pfizer Inc., priority 2007, dated 2014)
# Legend:
# [1] = tested on: osteocalcin; assay: Serum osteocalcin suppression, 28-day repeat dose mouse model; format: in vivo; conditions: for Osteocalcin Suppression (ED80 dose): oral gavage 28 days, serum osteocalcin; for Serum osteocalcin (OC) EAUC50 / Serum osteocalcin (OC) EAUC80: data set 2, 28-day repeat dose model
# [2] = biological target: full-length glucocorticoid (GR) protein (Homo sapiens (Human), UniProt P04150); assay: Glucocorticoid receptor fluorescence polarization ligand binding (GRFP) assay
# full-length glucocorticoid (GR) protein, sequence (P04150 whole entry): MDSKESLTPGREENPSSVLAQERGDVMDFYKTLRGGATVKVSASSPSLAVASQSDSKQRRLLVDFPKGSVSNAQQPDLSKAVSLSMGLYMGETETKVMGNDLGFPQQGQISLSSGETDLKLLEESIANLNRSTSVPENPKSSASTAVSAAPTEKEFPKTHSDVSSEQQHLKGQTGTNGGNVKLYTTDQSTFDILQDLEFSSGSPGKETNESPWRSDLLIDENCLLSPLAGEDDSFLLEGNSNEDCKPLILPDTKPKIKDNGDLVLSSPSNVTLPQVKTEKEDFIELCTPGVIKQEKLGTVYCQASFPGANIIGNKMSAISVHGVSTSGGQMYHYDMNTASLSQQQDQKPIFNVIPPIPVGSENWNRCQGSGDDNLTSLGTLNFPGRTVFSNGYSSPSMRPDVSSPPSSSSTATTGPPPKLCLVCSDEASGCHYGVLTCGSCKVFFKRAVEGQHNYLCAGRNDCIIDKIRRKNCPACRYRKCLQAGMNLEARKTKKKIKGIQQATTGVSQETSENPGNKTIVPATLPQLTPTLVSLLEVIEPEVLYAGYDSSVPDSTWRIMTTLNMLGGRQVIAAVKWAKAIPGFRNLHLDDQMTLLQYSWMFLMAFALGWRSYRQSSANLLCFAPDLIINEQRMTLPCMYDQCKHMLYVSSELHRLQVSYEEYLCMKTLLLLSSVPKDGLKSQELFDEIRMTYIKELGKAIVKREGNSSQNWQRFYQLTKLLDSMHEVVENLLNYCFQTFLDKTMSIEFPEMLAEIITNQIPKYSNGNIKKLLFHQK
# Description: The glucocorticoid receptor fluorescence polarization ligand binding (GRFP) assay is used to evaluate direct binding of testing compounds to full-length glucocorticoid (GR) protein. Reagents for this assay are purchased from Invitrogen in a test kit. A fluorescent labeled GR ligand is used as a fluorescent tracer and test compounds compete with the fluorescent tracer for GR binding. The change in polarization value in the presence of test compounds is due to binding of test compounds to GR and is used to determine IC50 and relative binding affinity of test compounds for GR.
# [3] = tested on: IL-6; assay: IL-6 production in IL-1β-stimulated A549 cells; format: cell-based, human
# Experimental: IL-6 IC50 and % Inhibition
# Human A549 lung epithelial cells (American Type Culture Collection, Rockville, Md.) were cultured in Kaighn's F-12K medium with penicillin-streptomycin (10 U/mL) and 10% heat-inactivated fetal bovine serum (all from Invitrogen, Grand Island, N.Y.). A549 cells were plated at a density of 30,000 cells/well in 96-well plates and incubated overnight at 37° C. and with 5% CO2. The cells were serum-starved by replacing the growth medium with serum-free Kaighn's F-12K medium with penicillin-streptomycin (10 U/mL) and, again, incubating overnight at 37° C. and with 5% CO2. On the third day, the medium was replaced with fresh serum-free medium and the cells were incubated with or without compound (vehicle was DMSO at 0.1% maximum concentration) for approximately 1 hour and then stimulated with 1 ng/mL recombinant human IL-1β (R&D Systems, Minneapolis, Minn.) for 20 hours at 37° C. and with 5% CO2. Cell supernatants were collected for determination of IL-6 levels using MSD (Meso Scale Discovery, Gaithersburg, Md.) 96-well Single Spot plates as per the manufacturer's instructions. Plates were read with an MSD Sector Imager 6000. […] Vehicle was used to define the 0% inhibition control. Percent inhibition for each compound concentration, relative to these controls, was calculated using Excel (Microsoft, Redmond, Wash.). […]
# [4] = tested on: Mouse Collagen-Induced Arthritis; assay: Therapeutic mouse collagen-induced arthritis (mCIA) model; format: in vivo
# Description: (§1) Mouse Collagen-induced arthritis is a commonly used chronic, preclinical model of rheumatoid arthritis in which joint swelling and bone destruction occur following immunization with type II collagen. Reduction of disease incidence and severity has been shown previously to be predictive of disease-modification and signs and symptoms mitigation, respectively, in a clinical setting.
# In the therapeutic mCIA model, induction of disease incidence and severity was synchronized via LPS stimulation. Male DBA/J mice were immunized with 100 ug of bovine type II collagen (bCII) on day 0. All mice received an intraperitoneal injection of 20 μg of LPS on day 28 and disease was allowed to develop through day 34. At day 34, all mice had disease (incidence=100%) with an average severity score of seven. Dosing of compounds was initiated in the therapeutic mode on day 34 and continued through day 49. Different treatments were compared by measuring the decrease in incidence (i.e., resolution of disease) and the decrease in severity of paw swelling over time.
# [5] = tested on: Mouse Collagen-Induced Arthritis; assay: Traditional mouse collagen-induced arthritis (mCIA) model; format: in vivo
# Experimental: as §1
# In the traditional mCIA model, male DBA/J mice were immunized with 50 μg chick type II collagen (cCII) in complete Freund's adjuvant and then boosted 21 days later with 50 μg cCII in incomplete Freund's adjuvant. Treatment with compounds was initiated on the morning of the boost and continued for 56 days. The effectiveness of treatment was measured by disease incidence (i.e., number of mice showing any sign of disease) and disease severity, both of which were measured twice a week.
# [6] = tested on: TNFα; assay: LPS-induced serum TNFα suppression, 28-day repeat dose mouse model; format: in vivo
# [7] = tested on: house dust mite-induced BAL inflammatory cell influx; assay: House dust mite model of asthma, BAL fluid cell infiltration; format: in vivo, mouse; conditions: mice, 0.1, 1 and 10 mg/kg, p.o., b.i.d.
# [8] = Solubility and intrinsic dissolution; format: physicochemical; conditions: compared with Example 1
# [9] = tested on: cortical bone formation rate; assay: Cortical bone histomorphometry, bone formation rate (BFR); format: in vivo, mouse
# Experimental: Sigma-Aldrich, St. […] Calcein incorporates into the bone mineral and allows measurement of bone formation rate. Calcein was dissolved in 2% sodium bicarbonate. During the tissue harvest, the left tibiae were excised and cleaned for cortical histomorphometry measurements. After all skin and muscle were removed, tibiae were placed in 70% ethanol (4° C.) in the dark for a minimum of 24 hours. Ground transverse sections were used for histomorphometric analysis of cortical bone. Bones were sectioned using a low-speed saw (Isomet, Buehler, Lake Bluff, Ill.) equipped with a diamond wafer blade. The end of each tibia was removed proximal to tibia-fibula synostosis and a […] cross-section was cut. Using a roughened glass plate and a cork, sections were ground to […] until transparent and all labels were distinguishable under a fluorescent microscope. […] Sigma-Aldrich, St. Louis, Mo.). Sections were mounted using Eukitt Quick Mounting Medium (#03989, Sigma-Aldrich, St. Louis, Mo.) after which coverslip was applied. […] Bone formation rate was calculated by the following equation: (Inter-label width/Label interval)*(Labeled perimeter/Bone perimeter). At least five samples were measured from each treatment group in each study.
# [10] = Plasma exposure (AUC) in the mouse; format: in vivo
# Description: Drug exposure, defined as drug plasma concentrations integrated over time
# Due to blood volume sampling limitations in mice, AUC(0-4 hr) values were used to make pharmacodynamic comparisons.
# [11] = data set 2, 28-day repeat dose model, unit assumed
# [12] = data set 2, 28-day repeat dose model
structure (smiles),measurement,setting,value
"Cc1cnc(NC(=O)c2ccc3c(c2)CC[C@@H]2C[C@@](O)(C(F)(F)F)CC[C@@]32Cc2ccccc2)c(C)n1 [Comparator B, (4βS,7R,8αR)-4β-benzyl-N-(3,5-dimethylpyrazin-2-yl)-7-hydroxy-7-(trifluoromethyl)-4β,5,6,7,8,8α,9,10-octahydrophenanthrene-2-carboxamide]",Osteocalcin Suppression (ED80 dose),[1]; mouse,>10 mg/kg
"Cc1ncccc1NC(=O)c1ccc2c(c1)CC[C@@H]1C[C@@](O)(CCC(F)(F)F)CC[C@@]21Cc1ccccc1 [Comparator C, (4βS,7S,8αR)-4β-benzyl-7-hydroxy-N-(2-methylpyridin-3-yl)-7-(3,3,3-trifluoropropyl)-4β,5,6,7,8,8α,9,10-octahydrophenanthrene-2-carboxamide]",Osteocalcin Suppression (ED80 dose),[1]; mouse,2.84 mg/kg
"Cc1ccncc1NC(=O)c1ccc2c(c1)CC[C@@H]1C[C@@](O)(C(F)(F)F)CC[C@@]21Cc1ccccc1 [Comparator D, (4βS,7R,8αR)-4β-benzyl-7-hydroxy-N-(4-methylpyridin-3-yl)-7-(trifluoromethyl)-4β,5,6,7,8,8α,9,10-octahydrophenanthrene-2-carboxamide]",Osteocalcin Suppression (ED80 dose),[1]; mouse,3.06 mg/kg
"Cc1ncccc1NC(=O)c1ccc2c(c1)C(=O)C[C@@H]1C[C@@](O)(C(F)(F)F)CC[C@@]21Cc1ccccc1 [Comparator E, (4βS,7R,8αS)-4β-benzyl-7-hydroxy-N-(2-methylpyridin-3-yl)-10-oxo-7-(trifluoromethyl)-4β,5,6,7,8,8α,9,10-octahydrophenanthrene-2-carboxamide]",Osteocalcin Suppression (ED80 dose),[1]; mouse,1.71 mg/kg
"Cc1ncccc1NC(=O)c1ccc2c(c1)[C@H](O)C[C@@H]1C[C@@](O)(C(F)(F)F)CC[C@@]21Cc1ccccc1 [Comparator F, (4βS,7R,8αR,10R)-4β-benzyl-7,10-dihydroxy-N-(2-methylpyridin-3-yl)-7-(trifluoromethyl)-4β,5,6,7,8,8α,9,10-octahydrophenanthrene-2-carboxamide]",Osteocalcin Suppression (ED80 dose),[1]; mouse,>10 mg/kg
Cc1c(NC(=O)c2ccc3c(c2)CC[C@@H]2C[C@@](O)(C(F)(F)F)CC[C@@]32Cc2ccccc2)ccc[n+]1[O-] [Comparator G],IC50,[2],2.13 nM
"Cc1ncccc1NC(=O)c1ccc2c(c1)CC[C@@H]1C[C@@](O)(C(F)F)CC[C@@]21Cc1ccccc1 [Comparator H, (4βS,7R,8αR)-4β-benzyl-7-(difluoromethyl)-7-hydroxy-N-(2-methylpyridin-3-yl)-4β,5,6,7,8,8α,9,10-octahydrophenanthrene-2-carboxamide]",Osteocalcin Suppression (ED80 dose),[1]; mouse,1.46 mg/kg
"Cc1ncccc1NC(=O)c1ccc2c(c1)C=C[C@@H]1C[C@@](O)(C(F)(F)F)CC[C@@]21Cc1ccccc1 [Comparator I, (4βS,7R,8αS)-4β-benzyl-7-hydroxy-N-(2-methylpyridin-3-yl)-7-(trifluoromethyl)-4β,5,6,7,8,8α-hexahydrophenanthrene-2-carboxamide]",Osteocalcin Suppression (ED80 dose),[1]; mouse,>20 mg/kg
"Cc1ncc(NC(=O)c2ccc3c(c2)CC[C@@H]2C[C@@](O)(CCC(F)(F)F)CC[C@@]32Cc2ccccc2)c(C)n1 [Comparator J, (4βS,7S,8αR)-4β-benzyl-N-(2,4-dimethylpyrimidin-5-yl)-7-hydroxy-7-(3,3,3-trifluoropropyl)-4β,5,6,7,8,8α,9,10-octahydrophenanthrene-2-carboxamide]",Osteocalcin Suppression (ED80 dose),[1]; mouse,3.58 mg/kg
"Cc1ncccc1NC(=O)c1ccc2c(c1)CC[C@@H]1C[C@@](O)(C(F)(F)F)CC[C@@]21Cc1ccccc1 [Example 1, (4βS,7R,8αR)-4β-benzyl-7-hydroxy-N-(2-methylpyridin-3-yl)-7-(trifluoromethyl)-4β,5,6,7,8,8α,9,10-octahydrophenanthrene-2-carboxamide]",IC50,"[3]; IL-1β 1 ng/mL, listed as Example 1 free base",0.36 nM
same,Disease incidence (therapeutic mCIA) EAUC50,[4]; data set 2,0.12 µg·h/mL
same,Disease incidence (therapeutic mCIA) EAUC80,[4]; data set 2,0.33 µg·h/mL
same,Disease severity (therapeutic mCIA) EAUC50,"[4]; data set 2, unit assumed",0.09 µg·h/mL
same,Disease severity (therapeutic mCIA) EAUC80,"[4]; data set 2, unit assumed",0.19 µg·h/mL
same,Therapeutic mCIA (ED50 dose),[4]; mouse,less than 1 mg/kg
same,Disease incidence (traditional mCIA) EAUC80,[5]; data set 2,0.10
same,Serum TNFα EAUC50,[6]; [11],0.22 µg·h/mL
same,Serum TNFα EAUC80,[6]; [11],0.33 µg·h/mL
same,Serum osteocalcin (OC) EAUC50,[1],1310 ng·h/mL
same,Serum osteocalcin (OC) EAUC80,[1],4150 ng·h/mL
same,cell infiltration into BAL fluid,[7],mitigated cell infiltration into BAL fluid dose-dependently
"Cc1ncccc1NC(=O)c1ccc2c(c1)CC[C@@H]1C[C@@](OP(=O)(O)O)(C(F)(F)F)CC[C@@]21Cc1ccccc1 [Example 2, (2R,4αS,10αR)-4α-benzyl-7-((2-methylpyridin-3-yl)carbamoyl)-2-(trifluoromethyl)-1,2,3,4,4α,9,10,10α-octahydrophenanthren-2-yl dihydrogen phosphate]",solubility and intrinsic dissolution,[8],enhanced
C[C@]12C=CC(=O)C=C1CC[C@@H]1[C@@H]2[C@@H](O)C[C@@]2(C)[C@H]1CC[C@]2(O)C(=O)CO [Prednisolone],IL-6 % Inhibition,[3]; additional result (footnote a),100%
same,Disease severity (therapeutic mCIA) EAUC50,"[4]; AUC 0-4 hr, mouse",0.38 µg·h/mL
same,Disease severity (therapeutic mCIA) EAUC80,"[4]; AUC 0-4 hr, mouse",1.19 µg·h/mL
same,Disease incidence (therapeutic mCIA) EAUC50,[4]; data set 2,0.68 µg·h/mL
same,Disease incidence (therapeutic mCIA) EAUC80,[4]; data set 2,1.38 µg·h/mL
same,Disease severity (therapeutic mCIA) EAUC50,"[4]; data set 2, unit assumed",0.38 µg·h/mL
same,Disease severity (therapeutic mCIA) EAUC80,"[4]; data set 2, unit assumed",1.19 µg·h/mL
same,Therapeutic mCIA (ED80 dose),[4]; mouse,5.5 mg/kg
same,Disease incidence (traditional mCIA) EAUC50,"[5]; AUC 0-4 hr, mouse",0.25 µg·h/mL
same,Disease incidence (traditional mCIA) EAUC80,"[5]; AUC 0-4 hr, mouse",0.60 µg·h/mL
same,Disease incidence (traditional mCIA) EAUC80,[5]; data set 2,0.50
same,Serum TNFα EAUC50,"[6]; AUC 0-4 hr, mouse",0.81 µg·h/mL
same,Serum TNFα EAUC80,"[6]; AUC 0-4 hr, mouse",0.95 µg·h/mL
same,Serum TNFα EAUC50,[6]; [11],0.82 µg·h/mL
same,Serum TNFα EAUC80,[6]; [11],0.95 µg·h/mL
same,TNFα Suppression (ED80 dose),"[6]; mouse, oral gavage 28 days, LPS-induced serum TNFα",2.10 mg/kg
same,Serum osteocalcin EAUC50,"[1]; AUC 0-4 hr, mouse",560 ng·h/mL
same,Serum osteocalcin EAUC80,"[1]; AUC 0-4 hr, mouse",1600 ng·h/mL
same,Serum osteocalcin (OC) EAUC50,[1],560 ng·h/mL
same,Serum osteocalcin (OC) EAUC80,[1],1640 ng·h/mL
same,Cortical bone formation rate (BFR) EAUC50,"[9]; AUC 0-4 hr, mouse",0.09 µg·h/mL
same,Cortical bone formation rate (BFR) EAUC80,"[9]; AUC 0-4 hr, mouse",0.60 µg·h/mL
same,Cortical bone formation rate (BFR) EAUC50,[9]; [12],0.10
same,Cortical bone formation rate (BFR) EAUC80,[9]; [12],0.66
same,AUC(0-4 hr) as share of AUC(0-24 hr),[10],more than 95%
